Data published in patent publication US20260226071A1, “2, 4-DIANILINOPYRIMIDINE-BASED AURORA-A KINASE SELECTIVE DEGRADATION INDUCING COMPOUNDS” (UPPTHERA, INC., priority 2023, published 2026).

Legend:
NCI-H446 cell line = assay: Cell viability assay for NCI-H446 cell line; format: cell-based; settings: Homo sapiens, NCI-H446, 120 h; H446 cells, 5 days culture, EZ-Cytox; read-out: IC50 value (Level)
Summary of the method: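 Viability was measured by absorbance at 450 nm after 4 h with EZ-Cytox, following 5-day exposure of NCI-H446 cells (RPMI 1640, 10% FBS, 37 °C, 5% CO2) to 3-fold serial dilutions from 1000 nM down to 0.15 nM, added 24 h post-seeding.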

Aurora kinase A (AURKA) = target: T1, Aurora kinase A (AURKA) (Homo sapiens, UniProt O14965); assay: Luciferase assay for AURKA in HeLa LgBit (AURKA-HiBit KI) cell line; format: cell-based; settings: HeLa LgBit (AURKA-HiBit KI) cells, measured after 12 hours
T1 construct: endogenous in cells; host or cells: HeLa LgBit (AURKA-HiBit KI), CRISPR/Cas9 knock-in at the endogenous AURKA locus
T1 sequence (O14965 1-403): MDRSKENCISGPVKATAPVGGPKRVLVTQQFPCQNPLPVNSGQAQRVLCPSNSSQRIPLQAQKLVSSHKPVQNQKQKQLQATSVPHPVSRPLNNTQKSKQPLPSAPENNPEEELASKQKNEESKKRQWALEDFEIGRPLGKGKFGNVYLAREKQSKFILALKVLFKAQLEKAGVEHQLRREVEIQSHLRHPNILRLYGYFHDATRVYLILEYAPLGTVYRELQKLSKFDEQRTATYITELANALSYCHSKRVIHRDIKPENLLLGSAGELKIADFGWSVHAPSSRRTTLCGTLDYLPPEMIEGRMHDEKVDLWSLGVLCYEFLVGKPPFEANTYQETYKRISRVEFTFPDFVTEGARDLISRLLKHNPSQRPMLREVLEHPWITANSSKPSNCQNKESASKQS
Summary of the method: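 Test compounds (10 nM or 100 nM) added to AURKA-HiBit knock-in HeLa LgBit cells that had been pre-loaded with Endurazine for 2 h following an 18 h culture at 3×10^4 cells. Endogenous AURKA-HiBit level followed by luminescence (470-480 nm), measured after 12 h.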

| Structure (SMILES) | IC50 (NCI-H446 cell line) [nM] | luminescence value (Level) (Aurora kinase A (AURKA); 10 nM compound) | luminescence value (Level) (Aurora kinase A (AURKA); 100 nM compound) |
| --- | --- | --- | --- |
| CN(CC1CCN(c2ccc(NC3CCC(=O)NC3=O)cc2)CC1)[C@H]1CC[C@H](NC(=O)c2ccc(Nc3ncc(F)c(Nc4ccc(C(=O)Nc5ccccc5Cl)cc4)n3)cc2)CC1 (stereo partly drawn) [Compound 69, N-(2-chlorophenyl)-4-((2-((4-(((1r,4r)-4-(((1-(4-((2,6-dioxopiperidin-3-yl)amino)phenyl)piperidin-4-yl)methyl)(methyl)amino)cyclohexyl)carbamoyl)phenyl)amino)-5-fluoropyrimidin-4-yl)amino)benzamide] | 50 to 100 | A (A is <0.3) | A (A is <0.2) |
| O=C1CCC(c2ccc(N3CCN(CCC4CCN(NC(=O)c5ccc(Nc6ncc(F)c(Nc7ccccc7Cl)n6)cc5)CC4)CC3)cc2)C(=O)N1 (stereo not drawn) [Compound 57, 4-((4-((2-chlorophenyl)amino)-5-fluoropyrimidin-2-yl)amino)-N-(4-(2-(4-(4-(2,6-dioxopiperidin-3-yl)phenyl)piperazin-1-yl)ethyl)piperidin-1-yl)benzamide] | 100 to 150 | A (A is <0.3) | A (A is <0.2) |
| CN(Cc1ccc(Nc2ncc(F)c(Nc3ccc(C(=O)Nc4ccccc4Cl)cc3)n2)cc1)C1CCN(CCN2CCN(c3ccc(C4CCC(=O)NC4=O)cc3)CC2)CC1 (stereo not drawn) [Compound 100, N-(2-chlorophenyl)-4-((2-((4-(((1-(2-(4-(4-(2,6-dioxopiperidin-3-yl)phenyl)piperazin-1-yl)ethyl)piperidin-4-yl)(methyl)amino)methyl)phenyl)amino)-5-fluoropyrimidin-4-yl)amino)benzamide] | > 200 | C (C is 0.5 to 0.7) | A (A is <0.2) |
| O=C1CCC(c2ccc(N3CCN(CCC4CCN(NC(=O)c5ccc(Nc6ncc(F)c(Nc7ccc(C(=O)Nc8ccccc8Cl)cc7)n6)cc5)CC4)CC3)cn2)C(=O)N1 (stereo not drawn) [Compound 88, N-(2-chlorophenyl)-4-((2-((4-((4-(2-(4-(6-(2,6-dioxopiperidin-3-yl)pyridin-3-yl)piperazin-1-yl)ethyl)piperidin-1-yl)carbamoyl)phenyl)amino)-5-fluoropyrimidin-4-yl)amino)benzamide] | < 50 | A (A is <0.3) | A (A is <0.2) |
| O=C1CCC(Nc2ccc(N3CCN(C[C@H]4CC[C@H](NC(=O)c5ccc(Nc6ncc(F)c(Nc7ccc(C(=O)Nc8ccccc8Cl)cc7)n6)cc5)CC4)CC3)cc2)C(=O)N1 (stereo partly drawn) [Compound 26, N-(2-chlorophenyl)-4-((2-((4-(((1r,4r)-4-((4-(4-((2,6-dioxopiperidin-3-yl)amino)phenyl)piperazin-1-yl)methyl)cyclohexyl)carbamoyl)phenyl)amino)-5-fluoropyrimidin-4-yl)amino)benzamide] | < 50 | B (B is 0.3 to 0.5) | B (B is 0.2 to 0.4) |
| O=C1CCC(c2ccc(N3CCC(CN4CCN(C(=O)Cc5ccc(Nc6ncc(F)c(Nc7ccc(C(=O)Nc8ccccc8Cl)cc7)n6)cc5)CC4)CC3)cc2)C(=O)N1 (stereo not drawn) [Compound 1, N-(2-chlorophenyl)-4-((2-((4-(2-(4-((1-(4-(2,6-dioxopiperidin-3-yl)phenyl)piperidin-4-yl)methyl)piperazin-1-yl)-2-oxoethyl)phenyl)amino)-5-fluoropyrimidin-4-yl)amino)benzamide] | 100 to 150 | C (C is 0.5 to 0.7) | A (A is <0.2) |
| Cc1cc(N2CCN(CCC3CCN(NC(=O)c4ccc(Nc5ncc(F)c(Nc6ccc(C(=O)Nc7ccccc7Cl)cc6)n5)cc4)CC3)CC2)ccc1NC1CCC(=O)NC1=O (stereo not drawn) [Compound 85, N-(2-chlorophenyl)-4-((2-((4-((4-(2-(4-(4-((2,6-dioxopiperidin-3-yl)amino)-3-methylphenyl)piperazin-1-yl)ethyl)piperidin-1-yl)carbamoyl)phenyl)amino)-5-fluoropyrimidin-4-yl)amino)benzamide] | 150 to 200 | B (B is 0.3 to 0.5) | A (A is <0.2) |
| O=C1CCC(c2ccc(N3CCC(O)(CCC4CCN(NC(=O)c5ccc(Nc6ncc(F)c(Nc7ccc(C(=O)Nc8ccccc8Cl)cc7)n6)cc5)CC4)CC3)c(F)c2)C(=O)N1 (stereo not drawn) [Compound 96, N-(2-chlorophenyl)-4-((2-((4-((4-(2-(1-(4-(2,6-dioxopiperidin-3-yl)-2-fluorophenyl)-4-hydroxypiperidin-4-yl)ethyl)piperidin-1-yl)carbamoyl)phenyl)amino)-5-fluoropyrimidin-4-yl)amino)benzamide] | < 50 | A (A is <0.3) | A (A is <0.2) |
| O=C1CCC(c2ccc(N3CCN(CC[C@H]4CC[C@H](NC(=O)c5ccc(Nc6ncc(F)c(Nc7ccc(C(=O)Nc8ccccc8Cl)cc7)n6)cc5)CC4)CC3)c(F)c2)C(=O)N1 (stereo partly drawn) [Compound 74, N-(2-chlorophenyl)-4-((2-((4-(((1r,4r)-4-(2-(4-(4-(2,6-dioxopiperidin-3-yl)-2-fluorophenyl)piperazin-1-yl)ethyl)cyclohexyl)carbamoyl)phenyl)amino)-5-fluoropyrimidin-4-yl)amino)benzamide] | < 50 | B (B is 0.3 to 0.5) | A (A is <0.2) |
| CN(CC1CCN(c2ccc(C3CCC(=O)NC3=O)cc2F)CC1)[C@H]1C[C@H](NC(=O)c2ccc(Nc3ncc(F)c(Nc4ccc(C(=O)Nc5ccccc5Cl)cc4)n3)cc2)C1 (stereo partly drawn) [Compound 76, N-(2-chlorophenyl)-4-((2-((4-(((1r,3r)-3-(((1-(4-(2,6-dioxopiperidin-3-yl)-2-fluorophenyl)piperidin-4-yl)methyl)(methyl)amino)cyclobutyl)carbamoyl)phenyl)amino)-5-fluoropyrimidin-4-yl)amino)benzamide] | 50 to 100 | B (B is 0.3 to 0.5) | A (A is <0.2) |
| C[C@H]1CN(c2ccc(C3CCC(=O)NC3=O)cc2)CCN1CCC1CCN(NC(=O)c2ccc(Nc3ncc(F)c(Nc4ccc(C(=O)Nc5ccccc5Cl)cc4)n3)cc2)CC1 (stereo partly drawn) [Compound 113, N-(2-chlorophenyl)-4-((2-((4-((4-(2-((2S)-4-(4-(2,6-dioxopiperidin-3-yl)phenyl)-2-methylpiperazin-1-yl)ethyl)piperidin-1-yl)carbamoyl)phenyl)amino)-5-fluoropyrimidin-4-yl)amino)benzamide] | < 50 | A (A is <0.3) | A (A is <0.2) |
| O=C1CCC(Nc2ccc(N3CC(CN4CC5CN(C(=O)c6ccc(Nc7ncc(F)c(Nc8ccc(C(=O)Nc9ccccc9Cl)cc8)n7)cc6)CC5C4)C3)cc2)C(=O)N1 (stereo not drawn) [Compound 35, N-(2-chlorophenyl)-4-((2-((4-(5-((1-(4-((2,6-dioxopiperidin-3-yl)amino)phenyl)azetidin-3-yl)methyl)octahydropyrrolo[3,4-c]pyrrole-2-carbonyl)phenyl)amino)-5-fluoropyrimidin-4-yl)amino)benzamide] | 150 to 200 | B (B is 0.3 to 0.5) | B (B is 0.2 to 0.4) |
